Experiments:
[1] = test system: surface BCMA on Molp8 cells; assay: FACS surface BCMA after overnight incubation with anti-BCMA antibodies or DAPT; assay type: cell-based, human
Experimental: (§1) Flow cytometric analysis was utilized to determine the impact of overnight incubation of multiple myeloma cell lines with anti-BCMA antibodies on the level of surface BCMA. […] After 18 hours, wells were washed with cold FACS wash (PBS+1% filtered FBS) and resuspended in 667 nM of the same anti-BCMA antibody in cold stain buffer (Miltenyi 130-091-221) for 30 minutes on ice. After incubation, the cells were washed twice with cold FACS wash (PBS+1% filtered FBS) and bound antibody was detected by incubating with the appropriate anti-human secondary antibody (anti-hlgG or anti-HIS) on ice for an additional 30-45 minutes. After incubation, cells were washed, re-suspended in 200 μL cold PBS containing 1% filtered FBS and analyzed by flow cytometry on a BD FACS Canto II. Fold increase in staining was calculated by dividing the MFI of stained cells previously incubated overnight in BCMA abs or DAPT by the MFI of stained cells that were incubated overnight in media only.

[2] = test system: surface BCMA on NCI-H929 cells; assay: as above; assay type: cell-based, human
Experimental: as §1

[3] = test system: surface BCMA on MM1S cells; assay: as above; assay type: cell-based, human; details: stained with the anti-BCMA antibody
Experimental: as §1

[4] = test system: surface BCMA on U266 cells; assay: as above; assay type: cell-based, human
Experimental: as §1

MC38/BCMA tumors [5] = assay: Syngenic MC38/BCMA tumor model in CD3-humanized mice, combination with anti-PD-1, second experiment (Example 21); assay type: in vivo, mouse
Experimental: (§2) Implantation and measurement of syngenic tumors: C57BL/6 mice that express human CD3deg in place of murine CD3deg (CD3-humanized mice) were subcutaneously implanted with 1×10^6 MC38 colon carcinoma cells that have been engineered to express full-length human BCMA (MC38/BCMA).
(§3) The mice were administered these Abs twice more on days 7 and 11 for a total of three doses, and tumor growth was assessed throughout the experiment.
(§4) Calculation of syngenic tumor growth and inhibition: In order to determine tumor volume by external caliper, the greatest longitudinal diameter (length in mm) and the greatest transverse diameter (width in mm) were determined. Tumor volumes based on caliper measurements were calculated by the formula: Volume (mm^3)=(length× width^2)/2.

MC38/BCMA tumors [6] = assay: Syngenic MC38/BCMA tumor model in CD3-humanized mice, combination with anti-PD-1 (Example 20); assay type: in vivo, mouse; details: for Average Tumor Size (mm3) ± SEM on Day 3 / Average Tumor Size (mm3) ± SEM on Day 7 / Average Tumor Size (mm3) ± SEM on Day 11 / Average Tumor Size (mm3) ± SEM on Day 14 / Average Tumor Size (mm3) ± SEM on Day 18 / Average Tumor Size (mm3) ± SEM on Day 21 / Average Tumor Size (mm3) ± SEM on Day 24 / Average Tumor Size (mm3) ± SEM on Day 28: doses on days 3, 7, 11
Experimental: as §2, §3, §4

human BCMA-MMH = target: T1, human BCMA-MMH (Homo sapiens, UniProt Q02223); assay: SPR (Biacore 4000) binding kinetics at 25° C.
T1 construct: extracellular domain of human BCMA expressed with C-terminal myc-myc-hexahistidine tag (human BCMA-MMH)
Experimental: (§5) The CM5 Biacore sensor surface was derivatized by amine coupling with a monoclonal mouse anti-human Fc antibody (GE, #BR-1008-39) to capture purified anti-BCMA mAbs and anti-BCMA×anti-CD3 bispecific mAbs. All Biacore binding studies were performed in a buffer composed of 0.01M HEPES pH 7.4, 0.15M NaCl, 3 mM EDTA, 0.05% v/v Surfactant P20 (HBS-ET running buffer). […] Antigen samples were then injected over the anti-BCMA and anti-BCMA×anti-CD3 bispecific mAbs captured surfaces at a flow rate of 30 μL/minute. Antibody-reagent association was monitored for 5 minutes while dissociation in HBS-ET running buffer was monitored for 10 minutes. All of the binding kinetics experiments were performed at 25° C. Kinetic association (ka) and dissociation (kd) rate constants were determined by fitting the real-time sensorgrams to a 1:1 binding model using Scrubber 2.0c curve fitting software. Binding dissociation equilibrium constants (KD) and dissociative half-lives (t1/2) were calculated from the kinetic rate constants as: […]

monkey BCMA-MFC = assay: SPR (Biacore 4000) binding kinetics at 25° C.
Experimental: as §5

mouse BCMA-MFC = target: T2, mouse BCMA-MFC (Mus musculus, UniProt O88472); assay: SPR (Biacore 4000) binding kinetics at 25° C.
T2 construct: 30 nM BCMA expressed with C-terminal mFc tag (mouse BCMA-MFC)
Experimental: as §5

human BCMA-MFC = target: T3, human BCMA-MFC (Homo sapiens, UniProt Q02223); assay: SPR (Biacore 4000) binding kinetics at 25° C.
T3 construct: extracellular domain of human BCMA expressed with C-terminal mFc tag (human BCMA-MFC)
Experimental: as §5

monkey BCMA-MMH = assay: SPR (Biacore 4000) binding kinetics at 25° C.; details: for 90 nM mfBCMA.mmh Bind (RU): antibody captured on anti-human Fc
Experimental: as §5

[7] = bispecific 0.04 mg/kg + second antibody 4 mg/kg
[8] = bispecific 0.4 mg/kg + second antibody 4 mg/kg
[9] = bispecific 0.04 mg/kg + partner antibody 4 mg/kg
[10] = bispecific 0.24 mg/kg + second antibody 4 mg/kg

Sequence of monkey BCMA-MFC (as listed by the source): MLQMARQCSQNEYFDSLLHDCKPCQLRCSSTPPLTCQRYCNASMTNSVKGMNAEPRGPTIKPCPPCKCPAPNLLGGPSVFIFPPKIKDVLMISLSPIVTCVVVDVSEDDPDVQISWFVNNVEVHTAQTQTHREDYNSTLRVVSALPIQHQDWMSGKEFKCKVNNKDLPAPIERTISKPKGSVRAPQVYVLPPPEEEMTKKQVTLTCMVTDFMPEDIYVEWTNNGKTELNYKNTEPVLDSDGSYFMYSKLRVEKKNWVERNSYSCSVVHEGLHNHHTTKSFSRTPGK
T3 sequence (Q02223 with tags, fused parts or gaps): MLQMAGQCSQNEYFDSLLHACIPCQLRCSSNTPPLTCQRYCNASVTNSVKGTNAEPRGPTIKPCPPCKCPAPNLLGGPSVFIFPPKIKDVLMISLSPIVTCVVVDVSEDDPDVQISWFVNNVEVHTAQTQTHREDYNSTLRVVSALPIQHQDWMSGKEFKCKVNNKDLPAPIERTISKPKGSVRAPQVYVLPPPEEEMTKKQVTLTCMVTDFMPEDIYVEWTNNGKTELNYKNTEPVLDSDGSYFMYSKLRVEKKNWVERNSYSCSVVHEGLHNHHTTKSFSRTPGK
T2 sequence (O88472 with tags, fused parts or gaps): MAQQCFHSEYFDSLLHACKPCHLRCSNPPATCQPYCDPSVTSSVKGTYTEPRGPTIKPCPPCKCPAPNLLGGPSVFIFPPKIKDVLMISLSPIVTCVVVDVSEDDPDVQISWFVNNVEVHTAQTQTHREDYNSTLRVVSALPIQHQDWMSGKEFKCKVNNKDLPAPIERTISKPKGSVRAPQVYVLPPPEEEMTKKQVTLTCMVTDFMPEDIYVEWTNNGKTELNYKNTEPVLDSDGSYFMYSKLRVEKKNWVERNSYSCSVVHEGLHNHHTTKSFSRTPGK
T1 sequence (Q02223 with tags, fused parts or gaps): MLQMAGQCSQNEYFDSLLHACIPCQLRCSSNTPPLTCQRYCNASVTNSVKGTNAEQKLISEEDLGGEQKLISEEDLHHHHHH
Sequence of monkey BCMA-MMH (as listed by the source): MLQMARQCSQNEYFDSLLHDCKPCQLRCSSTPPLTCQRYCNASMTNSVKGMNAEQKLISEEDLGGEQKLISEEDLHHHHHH

C[C@H](NC(=O)Cc1cc(F)cc(F)c1)C(=O)N[C@H](C(=O)OC(C)(C)C)c1ccccc1 [DAPT]
fold increase of BCMA levels after overnight DAPT, range over detecting antibodies [1]: 2.4-8.6 fold | fold increase of BCMA levels after overnight DAPT, range over detecting antibodies [2]: 2.3-4 fold | MFI fold change over cells incubated in media only, Average [3]: 11.9 fold | fold increase of BCMA levels after overnight DAPT, range over detecting antibodies [4]: 5.3-9.0 fold

REGN5458 + Isotype: combination of REGN5458 with isotype control Ab (Clone 2A3)
Average Tumor Size (mm3) ± SEM on Day 3 (MC38/BCMA tumors [5]; [7]): 12.41 ± 2.56 mm3 | Average Tumor Size (mm3) ± SEM on Day 3 (MC38/BCMA tumors [5]; [8]): 11.22 ± 0.68 mm3 | Average Tumor Size (mm3) ± SEM on Day 6 (MC38/BCMA tumors [5]; [7]): 38.79 ± 3.52 mm3 | Average Tumor Size (mm3) ± SEM on Day 6 (MC38/BCMA tumors [5]; [8]): 16.11 ± 1.27 mm3 | Average Tumor Size (mm3) ± SEM on Day 10 (MC38/BCMA tumors [5]; [7]): 116.32 ± 19.99 mm3 | Average Tumor Size (mm3) ± SEM on Day 10 (MC38/BCMA tumors [5]; [8]): 24.27 ± 6.74 mm3 | Average Tumor Size (mm3) ± SEM on Day 13 (MC38/BCMA tumors [5]; [7]): 319.91 ± 53.05 mm3 | Average Tumor Size (mm3) ± SEM on Day 13 (MC38/BCMA tumors [5]; [8]): 50.93 ± 20.00 mm3 | Average Tumor Size (mm3) ± SEM on Day 18 (MC38/BCMA tumors [5]; [7]): 1314.27 ± 211.22 mm3 | Average Tumor Size (mm3) ± SEM on Day 18 (MC38/BCMA tumors [5]; [8]): 248.51 ± 107.21 mm3 | Average Tumor Size (mm3) ± SEM on Day 21 (MC38/BCMA tumors [5]; [7]): 2446.35 ± 395.48 mm3 | Average Tumor Size (mm3) ± SEM on Day 21 (MC38/BCMA tumors [5]; [8]): 453.43 ± 174.75 mm3 | Average Tumor Size (mm3) ± SEM on Day 25 (MC38/BCMA tumors [5]; [7]): 2411.64 ± 451.96 mm3 | Average Tumor Size (mm3) ± SEM on Day 25 (MC38/BCMA tumors [5]; [8]): 661.70 ± 331.60 mm3 | Number of Mice Tumor-Free at End of Experiment (Day 25) (MC38/BCMA tumors [5]; [9]): 0 of 10 | Number of Mice Tumor-Free at End of Experiment (Day 25) (MC38/BCMA tumors [5]; bispecific 0.4 mg/kg + partner antibody 4 mg/kg): 2 of 10 | Average Tumor Size (mm3) ± SEM on Day 3 (MC38/BCMA tumors [6]; [7]): 15.62 ± 1.61 mm3 | Average Tumor Size (mm3) ± SEM on Day 3 (MC38/BCMA tumors [6]; [10]): 13.13 ± 3.12 mm3 | Average Tumor Size (mm3) ± SEM on Day 7 (MC38/BCMA tumors [6]; [7]): 37.98 ± 3.93 mm3 | Average Tumor Size (mm3) ± SEM on Day 7 (MC38/BCMA tumors [6]; [10]): 29.27 ± 5.00 mm3 | Average Tumor Size (mm3) ± SEM on Day 11 (MC38/BCMA tumors [6]; [7]): 112.53 ± 17.39 mm3 | Average Tumor Size (mm3) ± SEM on Day 11 (MC38/BCMA tumors [6]; [10]): 36.63 ± 14.89 mm3 | Average Tumor Size (mm3) ± SEM on Day 14 (MC38/BCMA tumors [6]; [7]): 438.16 ± 59.56 mm3 | Average Tumor Size (mm3) ± SEM on Day 14 (MC38/BCMA tumors [6]; [10]): 224.33 ± 47.04 mm3 | Average Tumor Size (mm3) ± SEM on Day 18 (MC38/BCMA tumors [6]; [7]): 1040.12 ± 61.95 mm3 | Average Tumor Size (mm3) ± SEM on Day 18 (MC38/BCMA tumors [6]; [10]): 515.15 ± 115.38 mm3 | Average Tumor Size (mm3) ± SEM on Day 21 (MC38/BCMA tumors [6]; [7]): 2133.12 ± 129.26 mm3 | Average Tumor Size (mm3) ± SEM on Day 21 (MC38/BCMA tumors [6]; [10]): 1225.47 ± 289.39 mm3 | Average Tumor Size (mm3) ± SEM on Day 24 (MC38/BCMA tumors [6]; [7]): 3648.37 ± 536.71 mm3 | Average Tumor Size (mm3) ± SEM on Day 24 (MC38/BCMA tumors [6]; [10]): 1493.26 ± 973.01 mm3 | Average Tumor Size (mm3) ± SEM on Day 28 (MC38/BCMA tumors [6]; [7]): All Animals Euthanized | Average Tumor Size (mm3) ± SEM on Day 28 (MC38/BCMA tumors [6]; [10]): 1371.17 ± 0.00 mm3 | Number of Mice Tumor-Free at End of Experiment (Day 28) (MC38/BCMA tumors [6]; [9]): 0 of 7 | Number of Mice Tumor-Free at End of Experiment (Day 28) (MC38/BCMA tumors [6]; bispecific 0.24 mg/kg + partner antibody 4 mg/kg): 0 of 6

B1: mAb16711: anti-BCMA antibody, HCVR/LCVR SEQ ID NOs 2/10 (antibody, V domains shown)
VH: QVQLVESGGGVVQPGRSLRLSCAASGFTFSTYGIHWVRQAPGKGLEWVAVILHDGSSNYYAESVKGRFIISRDNSKNTLYLQMNSLRAEDTALYYCTKRYSEAAGPNWFDPWGQGTLVTVSS
VL: DIQMTQSPSSVSASVGDRVTITCRASRGISSWLAWYQQKPGKAPKLLIHAASSLQSGVPSRFSGSGSGTDFTLTISSLQPEDFATYYCQQAISFPFTFGPGTKVDIK
ka (human BCMA-MMH): 2.01e+06 M⁻¹ s⁻¹ | kd (human BCMA-MMH): 0.00347 s⁻¹ | Kd (monkey BCMA-MFC): > 30 nM | ka (mouse BCMA-MFC): 1.07e+06 M⁻¹ s⁻¹ | kd (mouse BCMA-MFC): 0.0011 s⁻¹ | ka (human BCMA-MFC): 1.85e+06 M⁻¹ s⁻¹ | kd (human BCMA-MFC): 0.00019 s⁻¹

B2: REGN4515: anti-BCMA antibody, HCVR/LCVR SEQ ID NOs 50/58 (antibody, V domains shown)
VH: QVQLVESGGGLVKPGGSLRLSCAASGFTFSDYYISWIRQAPGKGLEWVSYISSSGSSIKYADSVKGRFTISRDNAKNSLYLQMNSLRAEDTAVYYCAREGGNYGMDVWGQGTTVTVSS
VL: DIQMTQSPSSVSASVGDRVTITCRASQGINNWLVWYQQKPGKAPKLLIYAATSLQSGVPSRFSGSGSGTDFTLTISSLQPEDFATYYCQQANSFPPTFGQGTKLEIK
Kd (monkey BCMA-MMH): > 90 nM | 90 nM mfBCMA.mmh Bind (RU) (monkey BCMA-MMH): 1.9 RU | ka (human BCMA-MMH): 869000 M⁻¹ s⁻¹ | kd (human BCMA-MMH): 0.00247 s⁻¹ | ka (monkey BCMA-MFC): 2.13e+06 M⁻¹ s⁻¹ | kd (monkey BCMA-MFC): 0.00716 s⁻¹ | ka (mouse BCMA-MFC): 947000 M⁻¹ s⁻¹ | kd (mouse BCMA-MFC): 0.00418 s⁻¹ | ka (human BCMA-MFC): 1.41e+06 M⁻¹ s⁻¹ | kd (human BCMA-MFC): 8.95e-05 s⁻¹

B3: REGN4514: anti-BCMA antibody, HCVR/LCVR SEQ ID NOs 34/42 (antibody, V domains shown)
VH: EVQLVESGGGLVQPGRSLRLSCAASGFTFDDYAMHWVRQAPGKGLEWVSGISWNSGNMGYADSVKGRFTISRDNAKNSLFLQMHSLRAEDTAFYYCAKVRLTAFDFWGQGTLVTVSS
VL: DIQMTQSPSSLSASVGDRVTITCRTSQSIGNYLNWFQQKPGKAPKLLIYTASSLQNGVPSRFTGSGSGTDFTLTISSLQPEDFVIYYCQQSFSTPYTFGQGTKLEIK
Kd (monkey BCMA-MMH): > 90 nM | 90 nM mfBCMA.mmh Bind (RU) (monkey BCMA-MMH): 1.1 RU | ka (human BCMA-MMH): 1.06e+06 M⁻¹ s⁻¹ | kd (human BCMA-MMH): 0.00285 s⁻¹ | ka (monkey BCMA-MFC): 492000 M⁻¹ s⁻¹ | kd (monkey BCMA-MFC): 0.00724 s⁻¹ | ka (mouse BCMA-MFC): 397000 M⁻¹ s⁻¹ | kd (mouse BCMA-MFC): 0.000269 s⁻¹ | ka (human BCMA-MFC): 1.07e+06 M⁻¹ s⁻¹ | kd (human BCMA-MFC): 4.53e-05 s⁻¹
